What all share (assay): In vitro cell viability assay (CellTiter-Glo, 6 days)
A general note: ATP-based viability assays read luminescence as a measure of living cells.

One assay has as its system SK-BR-3 cells. Type of assay: cell-based, human. The conditions noted are these: Homo sapiens. The essentials: (§1)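 Cells plated overnight, then given 10 serial log10 dilutions of free drug (1% final DMSO) or ADC in medium. After 6 days, CellTiter-Glo luminescence expressed as % of untreated control. IC50 taken as the midpoint of a 4-parameter logistic fit; mean of at least one experiment in duplicate.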

A further assay deals with AU-565 cells. It is filed as cell-based, human. The conditions noted are these: Homo sapiens, AU565, free antifolate drugs, Table 1c. In a few lines:
as §1

Another assay has as its system BxPC-3 cells. Type of assay: cell-based. The conditions noted are these: Homo sapiens, free antifolate drugs, Table 1d. How it is done:
(§2) FaDu, BxPC-3, HeLa, MV4-11, and RAJI cell lines were obtained from Deutsche Sammlung von Mikroorganismen und Zellkulturen (Leipzig, Germany). Jurkat NucLight Red cells were obtained from Essen BioScience Inc. (Ann Arbor, Mich., USA). SK-BR-3 and SK-OV-3 cells were cultured in McCoys 5A medium (Lonza; Walkersville, Md., USA) supplemented with 10% v/w Fetal Bovine Serum (FBS), Heat-inactivated (HI) (Gibco-Life Technologies; Carlsbad, Calif.) and 80 U/mL Pen/Strep (Gibco-Life Technologies), at 37° C. in a humidified incubator under 5% CO2 atmosphere. SW-620 cells were similarly maintained in RPMI 1640 medium (Lonza), containing 10% v/w FBS HI and 80 U/mL Pen/Strep. A-549 cells were similarly maintained in F-12K Nutrient Mixture (1×) (Gibco-Life Technologies) media supplemented with 80 U/mL Pen/Strep and 5% v/w FBS, which was Qualified (Q) (Gibco-Life Technologies). BT-474 and AU-565 cells were similarly maintained in RPMI 1640 medium (Lonza), containing 10% v/w FBS, which was Qualified (Q) (Gibco-Life Technologies), and 80 U/mL Pen/Strep. […] Jurkat NucLight Red cells were similarly maintained in RPMI 1640 medium (Lonza), containing 10% v/w FBS HI, 80 U/mL Pen/Strep and 0.5 μg/mL Puromycin (Gibco-Life Technologies). FaDu cells were cultured in EMEM medium (Lonza) supplemented with 10% v/w FBS HI (Gibco-Life Technologies), 1× GlutaMAX (Gibco-Life Technologies), and 80 U/mL Pen/Strep (Gibco-Life Technologies), at 37° C. in a humidified incubator under 5% CO2 atmosphere.
(§3) After an overnight incubation, 10 serial log 10 dilutions of the free drugs were made in DMSO (Sigma-Aldrich). These free drug dose-response curves were 10-times further diluted in complete growth medium. For the ADCs according to the invention 10 serial log 10 dilutions were made in complete growth medium. 10 μL of a composition comprising a free drug or an ADC according to the invention was added to the assay plate (final DMSO content for free drugs was 1%). […] […] Percentage cell survival was calculated by dividing the measured luminescence for each free drug or ADC according to the concentration with the average mean of untreated cells (1% or 0.1% DMSO control (for free drugs) or 100% complete growth medium (for ADCs)) multiplied by 100.
(§4) Curves were fitted by non-linear regression using the sigmoidal dose-response equation with variable slope (four parameters) using curve-fitting software (GraphPad Prism, version 9.4.0 for Windows, GraphPad, San Diego, Calif. or Electronic Laboratory Notebook (ELN) add-in BioAssay, version 19.1.0.0218, Perkin Elmer, Waltham, Mass.). Relative IC50 values were calculated as the concentration that gives a response halfway between bottom and top of the curve, when using a 4-parameter logistic fit. Data were reported as mean IC50 value of at least one experiment performed in duplicate.

The next assay concerns FaDu cells. Type of assay: cell-based. To be noted: Homo sapiens, free antifolate drugs, Table 1d. How it is done: as §2, §3, §4
Assay [1] deals with Jurkat NucLight Red cells. Type of assay: cell-based, human. To be noted: Homo sapiens, Jurkat, free antifolate drugs. In a few lines: as §1
In a further assay the test system is MV4-11 cells. Type of assay: cell-based. The conditions noted are these: Homo sapiens, free antifolate drugs, Table 1d. How it is done: (§5) Human tumor cell lines SK-BR-3, SW-620, A-549, BT-474, Jurkat Clone E6-1, AU-565, and SK-OV-3 were obtained from American Type Culture Collection (Rockville, Md., USA). FaDu, BxPC-3, HeLa, MV4-11, and RAJI cell lines were obtained from Deutsche Sammlung von Mikroorganismen und Zellkulturen (Leipzig, Germany). Jurkat NucLight Red cells were obtained from Essen BioScience Inc. (Ann Arbor, Mich., USA). SK-BR-3 and SK-OV-3 cells were cultured in McCoys 5A medium (Lonza; Walkersville, Md., USA) supplemented with 10% v/w Fetal Bovine Serum (FBS), Heat-inactivated (HI) (Gibco-Life Technologies; Carlsbad, Calif.) and 80 U/mL Pen/Strep (Gibco-Life Technologies), at 37° C. in a humidified incubator under 5% CO2 atmosphere. SW-620 cells were similarly maintained in RPMI 1640 medium (Lonza), containing 10% v/w FBS HI and 80 U/mL Pen/Strep. A-549 cells were similarly maintained in F-12K Nutrient Mixture (1×) (Gibco-Life Technologies) media supplemented with 80 U/mL Pen/Strep and 5% v/w FBS, which was Qualified (Q) (Gibco-Life Technologies). BT-474 and AU-565 cells were similarly maintained in RPMI 1640 medium (Lonza), containing 10% v/w FBS, which was Qualified (Q) (Gibco-Life Technologies), and 80 U/mL Pen/Strep. Jurkat Clone E6-1, BxPC-3, HeLa, MV4-11, and RAJI cells were similarly maintained in RPMI 1640 medium (Lonza), containing 10% v/w FBS HI and 80 U/mL Pen/Strep. Jurkat NucLight Red cells were similarly maintained in RPMI 1640 medium (Lonza), containing 10% v/w FBS HI, 80 U/mL Pen/Strep and 0.5 μg/mL Puromycin (Gibco-Life Technologies). FaDu cells were cultured in EMEM medium (Lonza) supplemented with 10% v/w FBS HI (Gibco-Life Technologies), 1× GlutaMAX (Gibco-Life Technologies), and 80 U/mL Pen/Strep (Gibco-Life Technologies), at 37° C. in a humidified incubator under 5% CO2 atmosphere.
(§6) Cells in complete growth medium were plated in 96-well plates (90 μL/well) and incubated at 37° C., 5% CO2 at the following cell densities: 6500 SK-BR-3, 4000 SW-620, 2500 A-549, 10000 BT-474, 3000 Jurkat Clone E6-1, 5000 AU-565, 1250 FaDu, 1250 BxPC-3, 1000 HeLa, 7500 MV4-11, 1000 RAJI, 3000 Jurkat NucLight Red, and 4000 SK-OV-3 cells per well. After an overnight incubation, 10 serial log 10 dilutions of the free drugs were made in DMSO (Sigma-Aldrich). These free drug dose-response curves were 10-times further diluted in complete growth medium. For the ADCs according to the invention 10 serial log 10 dilutions were made in complete growth medium. 10 μL of a composition comprising a free drug or an ADC according to the invention was added to the assay plate (final DMSO content for free drugs was 1%). […] Cell viability was assessed after 6 days using a luminescent assay kit (CellTiter-Glo™ (CTG), Promega Corporation) according to the manufacturer's instructions. Percentage cell survival was calculated by dividing the measured luminescence for each free drug or ADC according to the concentration with the average mean of untreated cells (1% or 0.1% DMSO control (for free drugs) or 100% complete growth medium (for ADCs)) multiplied by 100.
as §4

The subject of the next assay is RAJI cells. Type of assay: cell-based. The conditions noted are these: Homo sapiens, free antifolate drugs, Table 1d. How it is done:
as §5, §6, §4

The test system of a further assay is HeLa cells. It is filed as cell-based. To be noted: Homo sapiens, free antifolate drugs, Table 1d. How it is done:
as §5, §6, §4

Another assay deals with Jurkat Clone E6-1 cells. It is filed as cell-based. The conditions noted are these: Homo sapiens, free antifolate drugs, Table 1d. How it is done: Human tumor cell lines SK-BR-3, SW-620, A-549, BT-474, Jurkat Clone E6-1, AU-565, and SK-OV-3 were obtained from American Type Culture Collection (Rockville, Md., USA). FaDu, BxPC-3, HeLa, MV4-11, and RAJI cell lines were obtained from Deutsche Sammlung von Mikroorganismen und Zellkulturen ([…], Germany). Jurkat NucLight Red cells were obtained from Essen BioScience Inc. (Ann Arbor, Mich., USA). SK-BR-3 and SK-OV-3 cells were cultured in McCoys 5A medium (Lonza; Walkersville, Md., USA) supplemented with 10% v/w Fetal Bovine Serum (FBS), Heat-inactivated (HI) (Gibco-Life Technologies; Carlsbad, Calif.) and 80 U/mL Pen/Strep (Gibco-Life Technologies), at 37° C. in a humidified incubator under 5% CO2 atmosphere. […]
Cells in complete growth medium were plated in 96-well plates (90 μL/well) and incubated at 37° C., 5% CO2 at the following cell densities: 6500 SK-BR-3, 4000 SW-620, 2500 A-549, 10000 BT-474, 3000 Jurkat Clone E6-1, 5000 AU-565, 1250 FaDu, 1250 BxPC-3, 1000 HeLa, 7500 MV4-11, 1000 RAJI, 3000 Jurkat NucLight Red, and 4000 SK-OV-3 cells per well. […] Percentage cell survival was calculated by dividing the measured luminescence for each free drug or ADC according to the concentration with the average mean of untreated cells (1% or 0.1% DMSO control (for free drugs) or 100% complete growth medium (for ADCs)) multiplied by 100. […]

The mark [2] stands for this setting: SK-BR-3, 24 h, free antifolate drugs, Table 1d.

The term IC50 denotes the concentration that gives 50% inhibition. In the case of `Nc1ccc(C(=O)NCCC[C@H](NC(=O)c2ccc(CCc3ccc4nc(N)nc(N)c4c3Cl)cc2)C(=O)O)c(-c2nnn[nH]2)c1` [XT123, (S)-5-(4-amino-2-(1H-tetrazol-5-yl)benzamido)-2-(4-(2-(2,4-diamino-5-chloroquinazolin-6-yl)ethyl)benzamido)pentanoic acid], the 50% inhibitory concentration (IC50) turned out to be 0.63 nM with SK-BR-3 cells (setting [2]); 0.44 nM in the assay on SK-BR-3 cells (SK-BR-3, free antifolate drugs, Table 1c); 0.35 nM with AU-565 cells; 0.71 nM with BxPC-3 cells; 0.19 nM in the assay with FaDu cells; 0.79 nM in assay [1] (24 h, Table 1d). The IC50 is 0.6 nM in [1] (Table 1c), 0.62 nM in the assay on MV4-11 cells, 0.6 nM in the assay with RAJI cells and 0.11 nM with HeLa cells.

With `Nc1ccc(C(=O)NCCC[C@H](NC(=O)c2ccc(CCc3cnc4nc(N)nc(N)c4n3)cc2O)C(=O)O)c(-c2nnn[nH]2)c1` [XT162, (S)-5-(4-Amino-2-(1H-tetrazol-5-yl)benzamido)-2-(4-(2-(2,4-diaminopteridin-6-yl)ethyl)-2-hydroxybenzamido)pentanoic acid], the half-maximal inhibitory concentration (IC50) is 0.86 nM in the assay on SK-BR-3 cells (setting [2]); 0.78 nM with Jurkat Clone E6-1 cells; 0.78 nM in the assay on BxPC-3 cells; 0.44 nM with FaDu cells; 0.66 nM in assay [1] (24 h, Table 1d).

Source of the values: patent US20230144211A1, “ANTIFOLATE LINKER-DRUGS AND ANTIBODY-DRUG CONJUGATES” (Byondis B.V., priority 2020, published 2023).
